How the values were obtained:
[1] = target: T1, porcine ventricular cardiac S1 (Sus scrofa, UniProt P79293); test: Actin-activated myosin S1 ATPase, cardiac; type: biochemical
T1 construct: tissue Pel-freez; host or cells: frozen porcine ventricular muscle; myosin extracted and digested with alpha-chymotrypsin
Description: Smooth muscle chicken gizzard S1 was purchased from Cytoskeleton Inc. Other myosin S1 was prepared via published protocols ([21]). Briefly, fresh rabbit psoas and frozen porcine ventricular muscle (Pel-freez) were extracted in 0.3 M KCl, 0.15 M KH2PO4, 1 mM EGTA, 1 mM ATP, 1 mM DTT, pH 6.5, at 4°C. Full-length myosin was purified from each extract via low-ionic precipitations with final precipitation into PM12 buffer (12 mM PIPES, pH 7.0, 2 mM MgCl2). Purified myosin was resuspended in PIPES/EDTA buffer (20 mM PIPES, pH 6.8, 10 mM EDTA, 1 mM DTT) and reacted with 0.2 mg/mL α-chymotrypsin for 30 minutes at room temperature. Proteolysis was quenched with PMSF (final concentration 100 μM), and the reaction was centrifuged for 45 minutes at 230,000g. S1 fragment in the supernatant was dialyzed into PM12 with 0.02% sodium azide and clarified by centrifugation. Sucrose was added to 10% w/v and flash-frozen in liquid N2 and stored at –80°C. […]
A lactate dehydrogenase/pyruvate kinase enzyme-coupled system ([62]) was used to monitor ATP hydrolysis rates in various muscle preparations. […] A multidrop cassette (Thermo Fisher Scientific) dispensed 10 μL of the coupled enzyme system, calcium, and myofibrils to 10 μL ATP, NADH and PEP to initiate the reaction prior to reading on a plate reader (Envision, Perkin Elmer) for 10 minutes per plate at room temperature. […]

ABL1-nonphosphorylated = target: T2, ABL1-nonphosphorylated (Homo sapiens, UniProt P00519); test: KINOMEscan scanEDGE; type: binding; details: 20 uM
T2 construct: purchased Eurofins DiscoverX (KINOMEscan; SAFETYscan E/IC50 ELECT)

GR = target: T3, GR (Homo sapiens, UniProt P04150); test: SAFETYscan NHR Protein Interaction; type: cell-based; design: dose or concentration left out as unconfirmed
T3 construct: purchased Eurofins DiscoverX (KINOMEscan; SAFETYscan E/IC50 ELECT)
T3 sequence (P04150 whole entry): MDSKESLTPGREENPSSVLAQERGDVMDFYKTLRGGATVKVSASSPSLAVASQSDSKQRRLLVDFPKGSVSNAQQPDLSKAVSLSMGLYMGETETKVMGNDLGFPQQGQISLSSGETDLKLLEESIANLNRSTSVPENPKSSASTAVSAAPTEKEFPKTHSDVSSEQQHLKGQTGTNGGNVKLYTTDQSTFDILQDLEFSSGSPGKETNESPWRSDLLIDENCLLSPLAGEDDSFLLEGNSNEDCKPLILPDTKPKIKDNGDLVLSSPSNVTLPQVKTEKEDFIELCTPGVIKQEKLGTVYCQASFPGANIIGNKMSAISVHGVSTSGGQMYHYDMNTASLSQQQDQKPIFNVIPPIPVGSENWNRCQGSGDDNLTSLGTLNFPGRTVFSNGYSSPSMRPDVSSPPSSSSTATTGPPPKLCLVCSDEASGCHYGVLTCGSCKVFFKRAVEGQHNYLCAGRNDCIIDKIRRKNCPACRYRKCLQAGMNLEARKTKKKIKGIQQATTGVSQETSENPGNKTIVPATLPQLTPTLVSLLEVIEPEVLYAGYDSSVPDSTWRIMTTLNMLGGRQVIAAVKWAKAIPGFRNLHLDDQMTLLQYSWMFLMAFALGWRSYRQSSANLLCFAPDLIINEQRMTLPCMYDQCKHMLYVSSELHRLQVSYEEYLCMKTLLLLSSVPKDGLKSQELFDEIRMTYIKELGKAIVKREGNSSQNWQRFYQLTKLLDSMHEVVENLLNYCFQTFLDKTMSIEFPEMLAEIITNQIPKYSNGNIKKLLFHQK
Description: (§1) The specificity of EDG-5506 for fast skeletal myosin over other, unrelated proteins was confirmed using two off-target binding and activity screens. […] A second off-target panel (SAFETYscan E/IC50 ELECT, Eurofins DiscoverX) tested in vitro enzyme activity against 78 proteins, including GPCR, ion channel, kinases, nuclear hormone receptors, and transporters. In all assays, the IC50 of EDG-5506 was more than 10 μM (Supplemental Data File 1).

[2] = system: mouse extensor digitorum longus (EDL) muscle; test: Ex vivo isometric force, mouse EDL; details: WT mouse EDL, 10 μM
Description: Isometric force was measured ex vivo in mouse EDL and soleus muscle. EDL muscle eccentric injury was based on published protocols ([30]), with degree of lengthening and stimulation modified to yield a uniform drop in mdx isometric and peak force over 10 contractions. After isolation, muscle was mounted via 5-0 suture to a combination servomotor/force transducer (300C-LR, Aurora) between 2 electrodes connected to a stimulator (701C, Aurora) in Ringers solution at 27°C with continuously infused CO2/O2 gas mixture. Experiments were recorded with custom MATLAB software via a National Instruments PCIe-6321 board and 2090A BNC connector. Muscles were preincubated for 60 minutes with DMSO (final 0.1%)/compound before 10 eccentric contractions, 1 minute apart, with 100 milliseconds of isometric stimulation at 100 Hz and active lengthening of 0.1 L0 at a rate of 2 L0/s. After lengthening, muscles were held at 1.1 L0 with stimulation for 100 milliseconds (Supplemental Figure 2A).

[3] = target: T4, bovine cardiac myofibrils (Bos taurus, UniProt Q9BE39); test: Myofibril ATPase, bovine cardiac; type: biochemical; details: bovine cardiac ventricle; at pCa50
T4 construct: from tissue; host or cells: bovine cardiac ventricle
Description: Myofibrils were prepared from various animals and tissues: rabbit psoas muscle and porcine cardiac muscle were purchased from Pel-Freez Biologicals. Human bicep and soleus muscle were purchased from BioIVT, and neonatal rat muscle was obtained in house. All myofibrils were prepared using published methods ([21]).
A lactate dehydrogenase/pyruvate kinase enzyme-coupled system ([62]) was used to monitor ATP hydrolysis rates in various muscle preparations. Rabbit psoas myofibrils were used for high-throughput screening at pCa 6.25 at 0.25 mg/mL. A multidrop cassette (Thermo Fisher Scientific) dispensed 10 μL of the coupled enzyme system, calcium, and myofibrils to 10 μL ATP, NADH and PEP to initiate the reaction prior to reading on a plate reader (Envision, Perkin Elmer) for 10 minutes per plate at room temperature. Hits were reconfirmed, and secondary assays were used to evaluate selectivity, including bovine cardiac myofibrils (pCa 5.86) and enzyme coupled hits with a hexokinase screen (Sigma-Aldrich).

[4] = target: T5, TYK2(JH1domain-catalytic) (Homo sapiens, UniProt P29597); test: KINOMEscan scanEDGE; type: binding; details: 20 uM
T5 construct: TYK2(JH1domain-catalytic); purchased Eurofins DiscoverX (KINOMEscan; SAFETYscan E/IC50 ELECT)
T5 sequence (P29597 888-1187 limits assumed): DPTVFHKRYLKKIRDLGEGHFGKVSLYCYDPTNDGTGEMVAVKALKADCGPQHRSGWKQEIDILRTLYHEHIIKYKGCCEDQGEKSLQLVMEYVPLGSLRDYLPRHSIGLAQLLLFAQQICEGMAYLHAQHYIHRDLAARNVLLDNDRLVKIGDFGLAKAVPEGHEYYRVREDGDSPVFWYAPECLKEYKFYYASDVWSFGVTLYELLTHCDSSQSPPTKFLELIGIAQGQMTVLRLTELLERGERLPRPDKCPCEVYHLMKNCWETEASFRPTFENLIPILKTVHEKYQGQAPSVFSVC
Description: as §1

FGFR2 = target: T6, FGFR2 (Homo sapiens, UniProt P21802); test: KINOMEscan scanEDGE; type: binding; details: 20 uM
T6 construct: purchased Eurofins DiscoverX (KINOMEscan; SAFETYscan E/IC50 ELECT)
T6 sequence (P21802 22-821): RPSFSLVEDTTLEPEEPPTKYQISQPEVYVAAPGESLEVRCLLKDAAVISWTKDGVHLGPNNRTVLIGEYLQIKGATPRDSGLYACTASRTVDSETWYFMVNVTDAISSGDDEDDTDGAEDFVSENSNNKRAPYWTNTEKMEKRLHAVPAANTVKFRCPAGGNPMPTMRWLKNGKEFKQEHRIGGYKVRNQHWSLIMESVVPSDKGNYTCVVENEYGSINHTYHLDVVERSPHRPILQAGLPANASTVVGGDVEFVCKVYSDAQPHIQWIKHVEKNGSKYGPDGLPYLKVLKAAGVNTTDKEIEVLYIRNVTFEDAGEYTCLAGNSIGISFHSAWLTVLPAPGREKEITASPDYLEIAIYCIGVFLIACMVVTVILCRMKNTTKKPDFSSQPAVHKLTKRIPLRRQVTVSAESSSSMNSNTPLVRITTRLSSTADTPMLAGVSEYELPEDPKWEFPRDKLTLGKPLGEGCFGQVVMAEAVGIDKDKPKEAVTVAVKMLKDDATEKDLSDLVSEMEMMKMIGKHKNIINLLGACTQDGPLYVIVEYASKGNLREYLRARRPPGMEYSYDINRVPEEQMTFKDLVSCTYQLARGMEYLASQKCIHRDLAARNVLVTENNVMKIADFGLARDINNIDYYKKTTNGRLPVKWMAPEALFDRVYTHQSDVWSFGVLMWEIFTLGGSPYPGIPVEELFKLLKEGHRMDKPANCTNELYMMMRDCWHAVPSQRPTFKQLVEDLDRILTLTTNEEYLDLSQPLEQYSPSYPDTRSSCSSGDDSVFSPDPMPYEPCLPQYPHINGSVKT
Description: as §1

DCAMKL1 = target: T7, DCAMKL1 (Homo sapiens, UniProt O15075); test: KINOMEscan scanEDGE; type: binding; details: 20 uM
T7 construct: purchased Eurofins DiscoverX (KINOMEscan; SAFETYscan E/IC50 ELECT)
Description: as §1

MKNK1 = target: T8, MKNK1 (Homo sapiens, UniProt Q9BUB5); test: KINOMEscan scanEDGE; type: binding; details: 20 uM
T8 construct: purchased Eurofins DiscoverX (KINOMEscan; SAFETYscan E/IC50 ELECT)
T8 sequence (Q9BUB5 whole entry): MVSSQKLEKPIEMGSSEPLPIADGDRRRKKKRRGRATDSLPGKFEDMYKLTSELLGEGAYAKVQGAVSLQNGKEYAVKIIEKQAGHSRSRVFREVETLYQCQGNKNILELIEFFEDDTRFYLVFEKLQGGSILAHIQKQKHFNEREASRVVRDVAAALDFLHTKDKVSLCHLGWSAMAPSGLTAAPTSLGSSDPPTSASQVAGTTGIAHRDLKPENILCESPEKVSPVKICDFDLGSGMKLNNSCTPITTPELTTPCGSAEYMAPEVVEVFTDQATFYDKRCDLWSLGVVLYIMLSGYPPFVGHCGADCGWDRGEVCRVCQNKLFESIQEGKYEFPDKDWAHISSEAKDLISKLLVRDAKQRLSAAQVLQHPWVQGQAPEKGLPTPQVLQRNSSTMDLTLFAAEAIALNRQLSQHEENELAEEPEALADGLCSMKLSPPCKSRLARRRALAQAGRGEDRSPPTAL
Description: as §1

KIT = target: T9, KIT (Homo sapiens, UniProt P10721); test: KINOMEscan scanEDGE; type: binding; details: 20 uM
T9 construct: purchased Eurofins DiscoverX (KINOMEscan; SAFETYscan E/IC50 ELECT)
Description: as §1

JNK2 = target: T10, JNK2 (Homo sapiens, UniProt P45984); test: KINOMEscan scanEDGE; type: binding; details: 20 uM
T10 construct: purchased Eurofins DiscoverX (KINOMEscan; SAFETYscan E/IC50 ELECT)
T10 sequence (P45984 whole entry): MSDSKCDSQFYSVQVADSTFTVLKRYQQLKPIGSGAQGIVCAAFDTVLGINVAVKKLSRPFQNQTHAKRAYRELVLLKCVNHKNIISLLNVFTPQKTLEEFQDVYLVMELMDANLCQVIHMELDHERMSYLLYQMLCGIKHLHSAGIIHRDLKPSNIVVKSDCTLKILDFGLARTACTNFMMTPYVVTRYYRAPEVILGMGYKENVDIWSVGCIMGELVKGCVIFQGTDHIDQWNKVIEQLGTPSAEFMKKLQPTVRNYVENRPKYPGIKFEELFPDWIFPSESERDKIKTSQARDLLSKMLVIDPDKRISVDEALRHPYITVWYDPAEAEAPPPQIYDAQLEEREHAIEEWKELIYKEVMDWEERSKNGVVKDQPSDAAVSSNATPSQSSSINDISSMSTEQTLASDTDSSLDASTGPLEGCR
Description: as §1

PIM1 = target: T11, PIM1 (Homo sapiens, UniProt P11309); test: KINOMEscan scanEDGE; type: binding; details: 20 uM
T11 construct: purchased Eurofins DiscoverX (KINOMEscan; SAFETYscan E/IC50 ELECT)
Description: as §1

BTK = target: T12, BTK (Homo sapiens, UniProt Q06187); test: KINOMEscan scanEDGE; type: binding; details: 20 uM
T12 construct: purchased Eurofins DiscoverX (KINOMEscan; SAFETYscan E/IC50 ELECT)
Description: as §1

AKT1 = target: T13, AKT1 (Homo sapiens, UniProt P31749); test: KINOMEscan scanEDGE; type: binding; details: 20 uM
T13 construct: purchased Eurofins DiscoverX (KINOMEscan; SAFETYscan E/IC50 ELECT)
Description: as §1

MLK1 = target: T14, MLK1 (Homo sapiens, UniProt P80192); test: KINOMEscan scanEDGE; type: binding; details: 20 uM
T14 construct: purchased Eurofins DiscoverX (KINOMEscan; SAFETYscan E/IC50 ELECT)
T14 sequence (P80192 whole entry): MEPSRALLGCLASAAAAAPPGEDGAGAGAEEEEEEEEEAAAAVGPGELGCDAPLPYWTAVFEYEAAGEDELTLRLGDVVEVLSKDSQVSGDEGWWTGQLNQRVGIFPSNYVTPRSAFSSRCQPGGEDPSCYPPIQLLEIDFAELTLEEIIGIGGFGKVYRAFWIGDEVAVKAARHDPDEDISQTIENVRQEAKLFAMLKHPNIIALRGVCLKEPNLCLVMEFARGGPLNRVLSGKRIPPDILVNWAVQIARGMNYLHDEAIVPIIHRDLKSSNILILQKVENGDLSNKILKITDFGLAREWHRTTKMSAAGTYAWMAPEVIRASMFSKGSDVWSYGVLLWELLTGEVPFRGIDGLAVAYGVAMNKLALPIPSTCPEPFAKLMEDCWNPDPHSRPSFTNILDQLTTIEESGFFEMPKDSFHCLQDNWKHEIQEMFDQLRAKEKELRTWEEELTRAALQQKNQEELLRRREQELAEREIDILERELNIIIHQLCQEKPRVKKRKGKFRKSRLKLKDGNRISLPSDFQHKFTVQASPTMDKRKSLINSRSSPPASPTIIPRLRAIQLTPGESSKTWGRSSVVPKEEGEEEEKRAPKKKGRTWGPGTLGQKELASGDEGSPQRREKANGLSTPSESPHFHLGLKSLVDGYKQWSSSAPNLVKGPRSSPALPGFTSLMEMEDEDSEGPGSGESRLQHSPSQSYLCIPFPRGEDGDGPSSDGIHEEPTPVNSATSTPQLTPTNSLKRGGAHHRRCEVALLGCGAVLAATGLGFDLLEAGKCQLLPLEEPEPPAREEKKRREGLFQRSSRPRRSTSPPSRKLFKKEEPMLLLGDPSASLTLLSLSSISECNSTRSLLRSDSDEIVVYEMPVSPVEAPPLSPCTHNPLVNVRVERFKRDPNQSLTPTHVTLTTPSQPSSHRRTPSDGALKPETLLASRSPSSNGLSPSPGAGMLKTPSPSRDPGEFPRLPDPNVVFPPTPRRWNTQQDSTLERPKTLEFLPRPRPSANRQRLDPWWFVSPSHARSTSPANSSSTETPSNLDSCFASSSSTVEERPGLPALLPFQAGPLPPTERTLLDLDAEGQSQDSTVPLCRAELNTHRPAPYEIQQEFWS
Description: as §1

EPHA2 = target: T15, EPHA2 (Homo sapiens, UniProt P29317); test: KINOMEscan scanEDGE; type: binding; details: 20 uM
T15 construct: purchased Eurofins DiscoverX (KINOMEscan; SAFETYscan E/IC50 ELECT)
T15 sequence (P29317 24-976): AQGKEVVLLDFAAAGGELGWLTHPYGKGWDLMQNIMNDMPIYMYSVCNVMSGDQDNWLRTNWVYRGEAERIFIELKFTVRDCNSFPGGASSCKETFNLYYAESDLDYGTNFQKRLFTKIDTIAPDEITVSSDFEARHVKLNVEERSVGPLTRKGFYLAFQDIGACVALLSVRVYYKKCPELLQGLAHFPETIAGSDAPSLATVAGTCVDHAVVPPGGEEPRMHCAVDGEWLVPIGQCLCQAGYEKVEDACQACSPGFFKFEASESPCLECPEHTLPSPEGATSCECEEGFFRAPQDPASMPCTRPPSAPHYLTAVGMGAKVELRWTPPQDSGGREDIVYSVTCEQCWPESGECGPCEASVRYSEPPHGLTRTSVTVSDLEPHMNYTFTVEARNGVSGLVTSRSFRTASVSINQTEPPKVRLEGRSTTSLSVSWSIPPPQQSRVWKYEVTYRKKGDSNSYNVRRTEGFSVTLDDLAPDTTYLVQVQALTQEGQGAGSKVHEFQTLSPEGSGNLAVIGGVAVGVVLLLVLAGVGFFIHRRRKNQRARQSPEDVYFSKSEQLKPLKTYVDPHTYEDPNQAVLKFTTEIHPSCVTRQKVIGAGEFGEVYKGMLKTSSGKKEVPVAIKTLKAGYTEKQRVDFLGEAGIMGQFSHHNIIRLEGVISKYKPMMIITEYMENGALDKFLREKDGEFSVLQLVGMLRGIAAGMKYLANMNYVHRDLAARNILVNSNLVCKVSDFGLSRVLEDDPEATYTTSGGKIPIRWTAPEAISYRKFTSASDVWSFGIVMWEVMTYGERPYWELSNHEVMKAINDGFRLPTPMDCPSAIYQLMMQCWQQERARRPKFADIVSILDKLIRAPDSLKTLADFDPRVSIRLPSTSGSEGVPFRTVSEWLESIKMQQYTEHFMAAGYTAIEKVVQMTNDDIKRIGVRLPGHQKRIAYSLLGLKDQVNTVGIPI
Description: as §1

PIK3C2B = target: T16, PIK3C2B (Homo sapiens, UniProt O00750); test: KINOMEscan scanEDGE; type: binding; details: 20 uM
T16 construct: purchased Eurofins DiscoverX (KINOMEscan; SAFETYscan E/IC50 ELECT)
Description: as §1

KIT(V559D,T670I) = target: T17, KIT(V559D,T670I) (Homo sapiens, UniProt P10721, T670I/V559D); test: KINOMEscan scanEDGE; type: binding; details: 20 uM
T17 construct: purchased Eurofins DiscoverX (KINOMEscan; SAFETYscan E/IC50 ELECT)
Description: as §1

O=c1ccc(-c2cnc(OCC(F)(F)F)nc2)nn1Cc1cncc(F)c1 [EDG-5506]
IC50 [1]: > 100 µM | binding, % of control (ABL1-nonphosphorylated): 96 % of control | Emax (GR; read-out: Max Response (%) (Agonist)): 0.41% | Max inhibition (antagonist mode) (GR; read-out: Max Response (%) (Antagonist)): 33.6% | ex vivo force inhibition [2]: completely inhibiting force | IC50 [3]: > 100 µM | binding, % of control [4]: 87 % of control | binding, % of control (FGFR2): 84 % of control | binding, % of control (DCAMKL1): 76 % of control | binding, % of control (MKNK1): 85 % of control | binding, % of control (KIT): 98 % of control | binding, % of control (JNK2): 96 % of control | binding, % of control (PIM1): 97 % of control | binding, % of control (BTK): 93 % of control | binding, % of control (AKT1): 100 % of control | binding, % of control (MLK1): 98 % of control | binding, % of control (EPHA2): 58 % of control | binding, % of control (PIK3C2B): 100 % of control | binding, % of control (KIT(V559D,T670I)): 100 % of control
